Measured values from patent US8796457B2, “Compound useful for the treatment of degenerative and inflammatory diseases” (Galapagos NV, priority 2009, dated 2014).

Columns and labels:
[1] = test system: JAK2-dependent pathway (GM-CSF stimulated STAT5 phosphorylation, CD14+ cells) in human whole blood; test: Whole blood assay, GM-CSF stimulation, Phospho-STAT5 FACS; assay type: cell-based; settings: mean of 3 healthy volunteers, read-out: pIC50 in the inhibition of STAT5 phosphorylation (converted)
Procedure: A flow cytometry analysis was also performed to establish compound selectivity for JAK1 over JAK2, ex vivo using human whole blood.
The increase in phosphorylation of STAT5 by GM-CSF in monocytes was measured using an anti phospho-STAT5 antibody by FACS.
Remaining diluted Lyse/Fix buffer was discarded.
10 μg rhGM-CSF (AbCys S.A., Cat N°P300-03) was dissolved in 100 μl of PBS 0.1% BSA to obtain a 100 μg/ml stock solution. The stock solution was stored aliquoted at −80° C.
Control-treated samples received DMSO without any test compound.
Human blood was collected in heparinized tubes.
50,000 total events were counted and Phospho-STAT5 positive cells were measured after gating on CD14+ cells.

JAK2 [2] = molecular target: T1, JAK2 (Homo sapiens (Human), UniProt O60674); test: JAK2 Ki determination assay (Ulight-JAK-1 peptide); assay type: biochemical; settings: Lineweaver-Burk; Ulight-JAK-1 (Tyr1023) peptide, alternative protocol
Procedure: Alternatively, for the determination of Ki, different amounts of inhibitor were mixed with the enzyme and the enzymatic reaction was followed as a function of ATP concentration. […] 0.0125 mU of JAK2 (Invitrogen, PV4210) was used in the assay. The substrate was 50 nM Ulight-JAK-1 (Tyr1023) Peptide (Perkin Elmer, TRF0121). The reaction was performed in 25 mM HEPES pH 7.0, 0.01% Triton X-100, 2 mM DTT, 7.5 mM MgCl2 with varying concentrations of ATP and compound. Phosphorylated substrate was measured using an Eu-labeled anti-phosphotyrosine antibody PT66 (Perkin Elmer, AD0068). Readout was performed on the envision (Perkin Elmer) with excitation at 320 nm and emission followed at 615 nm and 665 nm.

JAK2 [3] = molecular target: T1, JAK2; test: JAK2 Ki determination assay (polyGT, 33P filter plate); assay type: biochemical; settings: Lineweaver-Burk; polyGT substrate, 33P readout
Text: For the determination of Ki, different amounts of inhibitor were mixed with the enzyme and the enzymatic reaction was followed as a function of ATP concentration. […] 0.025 mU of JAK2 (Invitrogen, PV4210) was used in the assay.

[4] = test system: MMP13 levels in SW1353 cells; test: OSM/IL-1β signaling assay (MMP13); assay type: cell-based; settings: Homo sapiens, 25 ng/mL OSM and 1 ng/mL IL-1β, 48 hours, average ± standard error of the mean
Text: 5% CO2. […] The data are expressed as the average EC50 from the assays±standard error of the mean.

T1 sequence (O60674 849-1124): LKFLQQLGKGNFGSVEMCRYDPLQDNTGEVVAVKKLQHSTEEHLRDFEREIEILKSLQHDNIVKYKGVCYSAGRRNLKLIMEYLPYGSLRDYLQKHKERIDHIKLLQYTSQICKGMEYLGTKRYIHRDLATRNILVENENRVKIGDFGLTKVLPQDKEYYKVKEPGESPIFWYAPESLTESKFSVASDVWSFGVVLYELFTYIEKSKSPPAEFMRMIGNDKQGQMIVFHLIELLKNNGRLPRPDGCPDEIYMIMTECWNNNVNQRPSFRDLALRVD

CC1(C)CN(C(=O)c2ccc(-c3cccc4nc(NC(=O)C5CC5)nn34)cc2)C1 [Compound 1, Cyclopropanecarboxylic acid{5-[4-(3,3-dimethyl-azetidine-1-carbonyl)-phenyl]-[1,2,4]triazolo[1,5-a]pyridin-2-yl}-amide]
IC50 [1]: 4270 nM | Ki (JAK2 [2]): 35 nM | Ki (JAK2 [3]): 126 nM | EC50 [4]: 4200 ± 2370 nM
